Data: publication PMC10108353, “Design and Pharmacological Characterization of α4β1 Integrin Cyclopeptide Agonists: Computational Investigation of Ligand Determinants for Agonism versus Antagonism” (Journal of Medicinal Chemistry, 2023)
Starred links: 1 amine or outer side, 2 acyl side, 3 side chain; linkers in the order of their positions; H or OH if unused. Positions of bridges follow the written chain, without caps; N, C: chain ends. Non-standard residues stand in square brackets, D forms with d. Residues, ends and D or L forms follow the SMILES beside them. Groups on a side chain read outwards from the residue. *: point of attachment. Phe(4-NH2) = Nc1ccc(C[C@H](N)C(=O)O)cc1; X1 = O=C(Cc1ccc(N[*:1])cc1)[*:2]; NH(2-Me-phenyl) = Cc1ccccc1N*; CO = O=C([*:1])[*:2]

Assays:
[1] = test system: ERK1/2 phosphorylation mediated by α4β1 integrin; assay: ERK1/2 phosphorylation in Jurkat E6.1 cells (Western blot); assay type: cell-based; details: compound 10^–7 to 10^–9 M, no FN, vs vehicle
Description: Intracellular signaling generated by the interaction of ECM components with α4β1 integrin produces an increase in the phosphorylation of cytoplasmatic second messengers such as ERK1/2 that contribute to α4 integrin-mediated cell functions.
Western blot analysis was performed as previously described, with the following modifications. […] On the other hand, after 1 h incubation with integrin antagonists, the cells were then seeded on FN (10 μg/mL) coated plates for 1 h. Integrin agonists were not incubated with FN. At the end of the incubation time, Jurkat E6.1 cells were lysed on ice using a mammalian protein extraction reagent (M-PER; Pierce, Rockford, IL) supplemented with a phosphatase inhibitor cocktail. Protein extracts were quantified using a BCA protein assay kit (Pierce), separated by 12% SDS-PAGE gel, transferred onto nitrocellulose membranes, and immunoblotted with anti-phospho-ERK1/2 (1:1000) (Cell Signaling Technology, Danvers, MA) or anti-total ERK1/2 antibodies (1:2500) (Cell Signaling Technology). Protocols for digital image acquisition and analysis have been previously described.[73] Densitometric analysis of the bands is reported (mean ± SD; n = 3); the amount of phosphorylated ERK1/2 (pERK1/2) is normalized to that of total ERK1/2 (totERK1/2). Experiments were replicated independently at least three times. Statistical analyses were performed using one-way ANOVA and the post hoc Newman–Keuls test.

[2] = molecular target: T1, α4β1 integrin (Homo sapiens, UniProt P05556+P13612); assay: Jurkat E6.1 cell adhesion to FN; details: agonist = adhesion index >1, antagonist = adhesion index <1
T1 sequence (P05556 21-798, one chain of several): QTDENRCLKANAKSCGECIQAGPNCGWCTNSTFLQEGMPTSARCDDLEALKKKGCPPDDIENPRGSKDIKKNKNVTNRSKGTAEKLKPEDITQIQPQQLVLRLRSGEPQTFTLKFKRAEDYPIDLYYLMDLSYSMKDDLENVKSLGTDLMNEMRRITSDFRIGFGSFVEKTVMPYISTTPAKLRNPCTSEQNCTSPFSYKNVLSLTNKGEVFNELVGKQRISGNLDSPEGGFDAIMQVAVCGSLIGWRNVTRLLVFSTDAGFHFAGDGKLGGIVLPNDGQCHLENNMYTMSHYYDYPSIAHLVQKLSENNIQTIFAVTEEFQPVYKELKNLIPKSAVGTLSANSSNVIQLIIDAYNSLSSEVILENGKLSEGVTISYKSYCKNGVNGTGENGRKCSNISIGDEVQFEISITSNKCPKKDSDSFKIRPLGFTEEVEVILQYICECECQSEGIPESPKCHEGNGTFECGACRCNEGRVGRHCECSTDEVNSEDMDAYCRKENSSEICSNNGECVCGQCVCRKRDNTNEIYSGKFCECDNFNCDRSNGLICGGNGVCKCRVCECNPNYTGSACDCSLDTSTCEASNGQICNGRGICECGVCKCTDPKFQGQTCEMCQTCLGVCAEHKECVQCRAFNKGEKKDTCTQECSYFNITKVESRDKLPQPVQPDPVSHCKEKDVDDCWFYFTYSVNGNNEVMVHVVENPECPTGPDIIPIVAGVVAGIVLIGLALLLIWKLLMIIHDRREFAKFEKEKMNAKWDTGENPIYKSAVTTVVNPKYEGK
Description: (§1) Cells were seeded in 96-well plates coated with the specific natural human recombinant ligands (Table 1) and allowed to adhere in the presence of increasing concentrations (10^–10 to 10^–4 M) of the synthesized CPPs before the determination of the number of adherent cells (as described in Experimental Section).
(§2) For adhesion assays on Jurkat E6.1, RPMI8866, or HL60 cells, black 96-well plates were coated overnight at 4 °C with VCAM-1 or ICAM-1 or MAdCAM-1 (5 μg/mL) or Fg (10 μg/mL). The cells were counted, stained with CellTracker green CMFDA (12.5 μM, 30 min at 37 °C, Life Technologies), and after three washes, were preincubated with increasing concentrations of new CPP (10^–10 to 10^–4 M) or with the vehicle (methanol) for 30 min at 37 °C. Then cells were plated (500 000/well) on coated wells and incubated for 30 min at 37 °C. After three washes, adhered cells were lysed with 0.5% Triton X-100 in PBS (30 min at 4 °C) and fluorescence was measured (Ex485 nm/Em535 nm) in an EnSpire Multimode Plate Reader (PerkinElmer, Waltham, MA). For adhesion assays mediated by α5β1 integrin, 96-well plates were coated by passive adsorption with FN (10 μg/mL) overnight at 4 °C. K562 cells were counted and preincubated with various concentrations of the peptides or with the vehicle (methanol) for 30 min at RT. Afterward, the cells were plated (50 000 cells/well) and incubated at RT for 1 h. The wells were then washed with 1% BSA in PBS (phosphate-buffered saline) to take off nonadherent cells, and 50 μL of hexosaminidase substrate was added; after addition of 100 μL of stopping solution, the plates were read at 405 nm. In both types of adhesion assay, the number of adherent cells was determined by comparison with a standard curve made in the same plate. Experiments were carried out in quadruplicate and repeated at least three times.
(§3) Jurkat E6.1 (expressing α4β1 and αLβ2 integrin), K562 (expressing α5β1 integrin) and HL60 (expressing αMβ2 integrin) cell lines were purchased from ATCC (Rockville, MD, USA); these cells were routinely cultured in RPMI-1640 (Life Technologies) supplemented with glutamine and 10% FBS.
(§4) Cells were grown at 37 °C under 5% CO2 humidified atmosphere.

[3] = molecular target: T2, α4β7 integrin (Homo sapiens, UniProt P13612+P26010); assay: cell-based; assay type: cell-based; details: for agonist or antagonist behaviour, MAdCAM-1/RPMI8866 α4β7: agonist = adhesion index >1, antagonist = adhesion index <1
T2 construct: RPMI8866 cells expressing α4β7 integrin to the ligand MAdCAM-1; endogenous in cells; host or cells: RPMI8866
T2 sequence (P13612 34-1032): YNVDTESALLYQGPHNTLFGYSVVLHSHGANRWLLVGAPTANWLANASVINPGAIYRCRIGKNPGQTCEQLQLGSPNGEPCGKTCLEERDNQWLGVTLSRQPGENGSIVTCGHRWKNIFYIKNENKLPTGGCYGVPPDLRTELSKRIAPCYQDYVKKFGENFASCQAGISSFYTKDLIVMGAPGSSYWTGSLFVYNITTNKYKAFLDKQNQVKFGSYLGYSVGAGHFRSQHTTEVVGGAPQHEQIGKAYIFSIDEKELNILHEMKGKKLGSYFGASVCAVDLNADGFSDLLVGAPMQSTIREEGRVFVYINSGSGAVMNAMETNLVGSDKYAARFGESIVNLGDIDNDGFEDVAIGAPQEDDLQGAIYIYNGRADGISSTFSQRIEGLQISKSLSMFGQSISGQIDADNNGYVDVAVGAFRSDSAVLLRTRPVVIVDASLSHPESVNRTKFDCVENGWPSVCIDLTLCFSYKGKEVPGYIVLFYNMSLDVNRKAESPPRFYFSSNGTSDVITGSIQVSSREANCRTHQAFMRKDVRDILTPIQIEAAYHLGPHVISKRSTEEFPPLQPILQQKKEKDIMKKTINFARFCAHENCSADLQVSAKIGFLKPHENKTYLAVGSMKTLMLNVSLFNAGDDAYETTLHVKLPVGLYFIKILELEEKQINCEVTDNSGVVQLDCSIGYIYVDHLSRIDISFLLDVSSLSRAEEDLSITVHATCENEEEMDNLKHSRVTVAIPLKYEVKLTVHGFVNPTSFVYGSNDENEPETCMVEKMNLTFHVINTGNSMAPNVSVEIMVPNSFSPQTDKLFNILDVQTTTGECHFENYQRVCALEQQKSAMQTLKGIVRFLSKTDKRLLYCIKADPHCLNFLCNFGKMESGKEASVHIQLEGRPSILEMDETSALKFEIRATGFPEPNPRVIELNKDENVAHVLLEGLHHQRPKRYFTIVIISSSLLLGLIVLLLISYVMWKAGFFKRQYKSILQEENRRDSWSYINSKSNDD
T2 sequence (P26010 20-798): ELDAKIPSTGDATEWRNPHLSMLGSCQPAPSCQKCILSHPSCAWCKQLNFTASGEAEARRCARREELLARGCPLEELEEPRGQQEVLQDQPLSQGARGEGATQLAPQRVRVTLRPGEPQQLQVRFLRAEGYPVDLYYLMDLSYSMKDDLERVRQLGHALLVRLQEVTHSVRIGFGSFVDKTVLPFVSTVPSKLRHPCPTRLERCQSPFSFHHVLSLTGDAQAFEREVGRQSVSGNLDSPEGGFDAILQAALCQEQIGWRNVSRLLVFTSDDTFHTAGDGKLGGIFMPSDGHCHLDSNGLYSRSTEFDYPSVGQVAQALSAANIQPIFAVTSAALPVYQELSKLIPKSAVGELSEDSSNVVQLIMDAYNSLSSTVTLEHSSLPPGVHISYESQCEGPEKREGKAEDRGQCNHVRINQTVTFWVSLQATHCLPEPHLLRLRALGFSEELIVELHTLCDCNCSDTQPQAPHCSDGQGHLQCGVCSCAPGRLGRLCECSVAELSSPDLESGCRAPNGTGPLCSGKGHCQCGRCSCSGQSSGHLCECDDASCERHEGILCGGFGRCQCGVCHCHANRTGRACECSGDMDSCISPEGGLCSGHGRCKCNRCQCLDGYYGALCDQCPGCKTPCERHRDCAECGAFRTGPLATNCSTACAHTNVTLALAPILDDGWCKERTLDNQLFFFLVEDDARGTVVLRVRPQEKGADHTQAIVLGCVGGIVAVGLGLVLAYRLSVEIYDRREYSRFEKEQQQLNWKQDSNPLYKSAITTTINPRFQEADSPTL
Text: mediated Jurkat cell adhesion to FN.

[4] = molecular target: T1, α4β1 integrin; assay: Jurkat E6.1 cell adhesion to VCAM-1; details: agonist = adhesion index >1, antagonist = adhesion index <1
Description: as §1, §2, §3, §4

[5] = molecular target: αLβ2 integrin (Homo sapiens, UniProt P05107+P20701); assay: Jurkat E6.1 cell adhesion to ICAM-1
Chain of αLβ2 integrin (P20701 26-1170): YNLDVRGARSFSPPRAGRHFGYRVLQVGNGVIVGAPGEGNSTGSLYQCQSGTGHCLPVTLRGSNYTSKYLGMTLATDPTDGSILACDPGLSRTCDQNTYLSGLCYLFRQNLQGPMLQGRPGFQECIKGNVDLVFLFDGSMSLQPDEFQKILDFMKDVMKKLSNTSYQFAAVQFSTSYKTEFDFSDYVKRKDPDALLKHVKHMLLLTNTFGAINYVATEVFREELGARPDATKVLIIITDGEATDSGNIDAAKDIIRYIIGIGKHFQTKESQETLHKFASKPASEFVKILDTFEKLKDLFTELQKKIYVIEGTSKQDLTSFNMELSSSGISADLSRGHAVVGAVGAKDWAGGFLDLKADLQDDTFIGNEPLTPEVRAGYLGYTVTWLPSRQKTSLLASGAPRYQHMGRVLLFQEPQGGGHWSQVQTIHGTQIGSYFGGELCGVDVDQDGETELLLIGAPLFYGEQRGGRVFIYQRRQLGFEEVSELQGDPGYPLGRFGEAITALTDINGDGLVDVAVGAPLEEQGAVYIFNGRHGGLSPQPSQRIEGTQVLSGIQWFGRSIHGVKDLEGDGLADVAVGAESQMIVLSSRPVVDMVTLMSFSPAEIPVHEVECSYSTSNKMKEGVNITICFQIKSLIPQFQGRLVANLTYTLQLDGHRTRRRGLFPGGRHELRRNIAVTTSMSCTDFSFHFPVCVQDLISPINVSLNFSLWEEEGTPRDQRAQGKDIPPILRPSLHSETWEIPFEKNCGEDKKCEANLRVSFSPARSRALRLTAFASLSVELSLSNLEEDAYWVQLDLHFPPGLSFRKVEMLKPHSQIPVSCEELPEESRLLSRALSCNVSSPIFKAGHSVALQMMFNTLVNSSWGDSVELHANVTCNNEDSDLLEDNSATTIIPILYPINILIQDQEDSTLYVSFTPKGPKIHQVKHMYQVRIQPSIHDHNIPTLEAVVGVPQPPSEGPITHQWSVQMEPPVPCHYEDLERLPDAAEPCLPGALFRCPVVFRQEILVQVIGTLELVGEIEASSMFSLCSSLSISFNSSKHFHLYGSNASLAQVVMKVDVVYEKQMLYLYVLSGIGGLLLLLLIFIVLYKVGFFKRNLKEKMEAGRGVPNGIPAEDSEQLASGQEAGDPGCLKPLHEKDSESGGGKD
Chain of αLβ2 integrin (P05107 23-769): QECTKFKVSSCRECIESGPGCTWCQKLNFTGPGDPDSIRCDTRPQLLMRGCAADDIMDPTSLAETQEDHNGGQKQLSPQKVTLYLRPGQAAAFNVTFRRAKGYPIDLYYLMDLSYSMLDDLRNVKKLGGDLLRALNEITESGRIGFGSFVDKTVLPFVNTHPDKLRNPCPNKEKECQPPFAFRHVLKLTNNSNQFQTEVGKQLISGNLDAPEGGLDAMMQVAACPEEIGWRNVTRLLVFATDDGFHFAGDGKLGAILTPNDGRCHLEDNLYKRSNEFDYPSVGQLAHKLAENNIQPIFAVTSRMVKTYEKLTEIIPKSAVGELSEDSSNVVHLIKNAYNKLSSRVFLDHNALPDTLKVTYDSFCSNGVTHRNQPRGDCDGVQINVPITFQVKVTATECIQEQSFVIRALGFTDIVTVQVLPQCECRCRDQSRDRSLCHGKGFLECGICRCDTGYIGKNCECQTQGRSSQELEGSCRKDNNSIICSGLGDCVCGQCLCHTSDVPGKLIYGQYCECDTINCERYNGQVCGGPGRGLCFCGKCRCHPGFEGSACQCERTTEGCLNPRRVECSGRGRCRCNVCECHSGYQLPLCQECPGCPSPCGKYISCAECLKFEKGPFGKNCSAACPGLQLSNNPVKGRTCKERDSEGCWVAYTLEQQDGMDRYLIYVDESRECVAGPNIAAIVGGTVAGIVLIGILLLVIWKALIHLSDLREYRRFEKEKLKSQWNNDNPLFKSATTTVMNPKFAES
Description: as §1
For adhesion assays on Jurkat E6.1, RPMI8866, or HL60 cells, black 96-well plates were coated overnight at 4 °C with VCAM-1 or ICAM-1 or MAdCAM-1 (5 μg/mL) or Fg (10 μg/mL). The cells were counted, stained with CellTracker green CMFDA (12.5 μM, 30 min at 37 °C, Life Technologies), and after three washes, were preincubated with increasing concentrations of new CPP (10^–10 to 10^–4 M) or with the vehicle (methanol) for 30 min at 37 °C. […] After three washes, adhered cells were lysed with 0.5% Triton X-100 in PBS (30 min at 4 °C) and fluorescence was measured (Ex485 nm/Em535 nm) in an EnSpire Multimode Plate Reader (PerkinElmer, Waltham, MA). […] K562 cells were counted and preincubated with various concentrations of the peptides or with the vehicle (methanol) for 30 min at RT. […] The wells were then washed with 1% BSA in PBS (phosphate-buffered saline) to take off nonadherent cells, and 50 μL of hexosaminidase substrate was added; after addition of 100 μL of stopping solution, the plates were read at 405 nm. […]

[6] = after 2 h, 37 °C, RP HPLC
Description: Enzymatic stability tests were carried out in triplicate and repeated three times using mouse serum (Sigma-Aldrich). Peptides was dissolved in Tris buffer pH 7.4 to a 10 mM concentration, and 10 mL aliquots were added to 190 mL of serum. Incubations were maintained at 37 °C, and 20 mL aliquots were sampled from the incubation mixtures at the indicated times of 0, 0.15, 0.5, 1.0, 2.0, and 3.0 h. Samples were diluted with 90 mL of CH3CN, and enzymatic activity was definitively stopped by adding 90 mL of 0.5% AcOH. After centrifugation (13 000g for 20 min), the supernatants were separated and the amount of remaining peptide was assessed by RP HPLC.

[7] = test system: α4β1 integrin; design: method as in PMID 23703610; details: low affinity agonist; cited from earlier work

Compound	effect on ERK1/2 phosphorylation, compound administered alone [1]	agonist or antagonist behaviour, FN/Jurkat E6.1 α4β1 [2]	agonist or antagonist behaviour, MAdCAM-1/RPMI8866 α4β7 [3]	agonist or antagonist behaviour, VCAM-1/Jurkat E6.1 α4β1 [4]	IC50 [5] [µM]	IC50 [3] [µM]	stability in mouse serum [6]	IC50 [7] [µM]
Cc1ccccc1NC(=O)Nc1ccc(C[C@@H]2NC(=O)C[C@@H](C(=O)O)NC(=O)[C@H](C(C)C)NC(=O)[C@H](CC(=O)O)NC(=O)[C@H](CC(C)C)NC2=O)cc1 [3a, c[(S)-Phu-Leu-Asp-Val-(S)-isoAsp]] ([Phe(4-NH2)]([CO-NH(2-Me-phenyl)])LDVD-OH; lactam N-5 (inferred))	significant concentration-dependent increase of ERK1/2 phosphorylation	agonist	agonist	agonist				
Cc1ccccc1NC(=O)Nc1ccc(C[C@@H]2NC(=O)C[C@@H](C(=O)O)NC(=O)[C@H](C(C)C)NC(=O)[C@H](C)NC(=O)[C@H](CC(C)C)NC2=O)cc1 [12a, c[(S)-Phu-Leu-Ala-Val-(S)-isoAsp]] ([Phe(4-NH2)]([CO-NH(2-Me-phenyl)])LAVD-OH; lactam N-5 (inferred))	significant concentration-dependent increase of ERK1/2 phosphorylation	agonist	completely lost activity	agonist	> 5	> 5		
Cc1ccccc1NC(=O)Nc1ccc(CC(=O)N[C@@H](CC(C)C)C(=O)N[C@@H](CC(=O)O)C(=O)N[C@H](C(=O)N2CCC[C@H]2C(=O)O)C(C)C)cc1 [BIO1211, MPUPA-LDVP-OH] ({NH(2-Me-phenyl)-CO}-[X1]LDVP-OH)			inactive				almost completely hydrolyzed	
CCCC[C@@H](COC(=O)N(Cc1cccs1)Cc1cccs1)NC(=O)N[C@@H](CC(=O)OC)c1ccc2c(c1)OCO2 [THI0019]								1000 to 2000
